Reference: patent publication US11261232B2, “TNFRSF14 / HVEM proteins and methods of use thereof” (MEMORIAL SLOAN KETTERING CANCER CENTER, priority 2015, dated 2022)

Assays:
primary human FL B cells = experiment: BCR signaling (pSyk, pERK) in anti-IgG-stimulated primary FL B cells; assay type: cell-based; conditions: solHVEM 10 μg/ml
Procedure: (§1) FIG. 4A-E. HVEM blocks BCR signaling in a cell autonomous and BTLA dependent manner. FIG. 4A and FIG. 4B, Quantification of FACS analysis of phosphorylated BTK (pBTK) expression in BCL1 cells after stimulation with anti-IgM in the presence of solHVEM (10 μg/m1) or Ibrutinib (10 nM) without (FIG. 4A) or with (FIG. 4B) the knockdown of BTLA (shBTLA); FIG. 4C, FACS analysis of BTLA expression on purified primary human FL B cells distinguishes samples with high (BTLA^hi) and low (BTLAlo) surface BTLA expression); FIG. 4D, FACS analysis for the indicated signaling molecules in human primary FL B cells that were BTLA^hi or BTLAlo and stimulated with anti-human IgG (3 min; 10 μg/ml and H2O2 1 mM) in the presence or absence of the soluble HVEM ectodomain (solHVEM; 10 μg/ml) (right); FIG. 4E, Percentage of pSyk inhibition was calculated by comparing the ratio of MFI of pSyk+/−solHVEM and was correlated to BTLA ratio of MFI (r=0.697, p=0.03, Purified FL B cells, n=10, grade 1 and grade 2).
FIG. 11. Effect of HVEM on murine and human FL B cells. […]
Loss of HVEM and BTLA leads to BCR activation in murine lymphomas (FIGS. 2G and 3F). […] Briefly, the BCR signaling pathway in BCL1 mouse lymphoma cells was stimulated with IgM in the presence or absence of solHVEM (10 μg/ml) or the pharmacological BTK inhibitor ibrutinib (10 nM) and BTK phosphorylation was measured as an indicator of BCR pathway activation by flow cytometry. […] BTLA expression was analyzed across ten samples of purified human FL B cells by FACS, and the samples were divided into BTLA″ and BTLA^10 groups (FIG. 4C). […]
Purified IgGpos FL B cells were stimulated using FITC-conjugated goat anti-human IgG (Invitrogen, […]) in the presence of H2O2 (1 mM) with or without solHVEM (10 μg/mL). […] Phosphoprotein activation was quantified using Alexa 647-conjugated anti-pSyk (clone 17A/p-ZAP70), anti-pBLNK (clone j117-1278), or anti-pERK1/2 (clone 20A, BD Biosciences) and analyzed on B cells expressing clonal heavy and light chain gated using the anti-IgG FITC Ab and a PE-conjugated anti-kappa Ab (Southern Biotech).

[1] = tested on: BCR signaling pathway in BCL1 mouse lymphoma cells; experiment: BTK phosphorylation by flow cytometry in IgM-stimulated BCL1 cells; assay type: cell-based; conditions: solHVEM 10 μg/ml
Procedure: as §1
Loss of HVEM and BTLA leads to BCR activation in murine lymphomas (FIGS. 2G and 3F). […] Briefly, the BCR signaling pathway in BCL1 mouse lymphoma cells was stimulated with IgM in the presence or absence of solHVEM (10 μg/ml) or the pharmacological BTK inhibitor ibrutinib (10 nM) and BTK phosphorylation was measured as an indicator of BCR pathway activation by flow cytometry. […]

[2] = tested on: myc-Bc12 lymphoma cell line; experiment: Cell viability by CellTiterGlo; assay type: cell-based, mouse; conditions: 5 ug/ml; 24 hours
Procedure: FIG. 18. sTNFRSF14 decreases cell viability in vitro. Cells of the myc-Bc12 lymphoma cell line were plated at a density of 1×10^5 cells/ml and they were treated with sTNFRSF14 (5 ug/ml) or vehicle. After 24 hours of treatment cell viability was assessed using CellTiterGlo reagent.

[3] = tested on: cell lines that expressed high levels of BTLA; experiment: Immunoblot of ERK phosphorylation in treated cell lines; assay type: cell-based; conditions: 5 ug/ml; cell lines with high BTLA
Procedure: FIG. 19. In vitro effect of sTNFRSF14. Immunoblots of cell lines that were treated with 5 ug/ml of sTNFRSF14. Blots were probed as indicated.
Immunoblots were performed using whole cell lysates or supernatants as previously described (Wendel et al., 2004). In brief, 30 μg protein/sample was resolved on SDS-PAGE gels and transferred to Immobilon-P membranes (Millipore). Antibodies were against, pSyk (Cell Signaling Technologies #2712), Syk (Cell Signaling Technologies #2710), pBTK (Cell Signaling Technologies #5082), BTK (Cell Signaling Technologies #3533) pERK (Cell Signaling Technologies #9102), ERK (Cell Signaling Technologies #4370) and Tubulin (Sigma-Aldrich). Enhanced chemiluminescence was used for detection (ECL; GE Healthcare).

With “solHVEM: Leu39-Val202 soluble HVEM ectodomain polypeptide of SEQ ID NO. 8” the “ERK inhibition in BTLAhi cells” value (primary human FL B cells; BTLAhi primary FL B cells) was “inhibition”, the “SYK inhibition in BTLAhi cells” value (primary human FL B cells; BTLAhi primary FL B cells) was “inhibition” and the “SYK and ERK inhibition in BTLAlo cells” value (primary human FL B cells; BTLAlo primary FL B cells) was “little effect”. The “BTK phosphorylation and activation” value ([1]; BCL1 cells stimulated with IgM) was “blocked BTK phosphorylation and activation” and the “BTK inhibition with knockdown of BTLA” value ([1]; BCL1 cells with shBTLA) was “knockdown of BTLA prevented BTK inhibition”.

B1: sTNFRSF14: Pro37-Val202 soluble HVEM ectodomain polypeptide of SEQ ID NO. 6 (protein, listed as Homo sapiens)
chain: PALPSCKEDEYPVGSECCPKCSPGYRVKEACGELTGTVCEPCPPGTYIAHLNGLSKCLQCQMCDPAMGLRASRNCSRTENAVCGCSPGHFCIVQDGDHCAACRAYATSSPGQRVQKGGTESQDTLCQNCPPGTFSPNGTLEECQHQTKCSWLVTKAGAGTSSSHWV
In the case of B1, the cell viability [2] is reported as “modest decrease” and the ERK phosphorylation levels [3] is reported as “clearly reduced”.
